Entries after “also recorded” stand apart in the source; their conditions may differ.
The molecules below were run against human A2AAR (Homo sapiens, UniProt P29274) (assay: Radioligand binding assay at A2AAR, membranes of HEK-293 cells, [3H]16). Conditions: comparison within the amino acid conjugate series and with parent 16.
human A2AAR, sequence (P29274 whole entry): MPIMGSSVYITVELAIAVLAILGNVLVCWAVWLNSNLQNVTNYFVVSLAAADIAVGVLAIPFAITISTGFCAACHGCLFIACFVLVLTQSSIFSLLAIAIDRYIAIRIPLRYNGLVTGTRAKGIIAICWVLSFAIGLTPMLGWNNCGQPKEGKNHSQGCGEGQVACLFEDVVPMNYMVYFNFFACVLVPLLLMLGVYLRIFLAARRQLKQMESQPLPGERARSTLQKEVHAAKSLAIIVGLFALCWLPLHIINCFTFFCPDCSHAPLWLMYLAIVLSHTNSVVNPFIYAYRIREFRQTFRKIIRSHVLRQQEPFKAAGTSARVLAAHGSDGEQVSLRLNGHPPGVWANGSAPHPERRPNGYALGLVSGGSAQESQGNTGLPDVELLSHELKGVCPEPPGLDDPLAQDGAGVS

Row | SMILES | Relative A2AAR binding affinity (in words)
1 | CCNC(=O)[C@H]1O[C@@H](n2cnc3c(N)nc(NCCc4ccc(CCC(=O)N[C@H](Cc5c[nH]cn5)C(=O)O)cc4)nc32)[C@H](O)[C@@H]1O [Compound 42] | most potent; also recorded: some gain in affinity
2 | CCNC(=O)[C@H]1O[C@@H](n2cnc3c(N)nc(NCCc4ccc(CCC(=O)N[C@H](Cc5ccccc5)C(=O)O)cc4)nc32)[C@H](O)[C@@H]1O [Compound 38] | most potent; also recorded: some gain in affinity
3 | CCNC(=O)[C@H]1O[C@@H](n2cnc3c(N)nc(NCCc4ccc(CCC(=O)N[C@H](CCCNC(=N)N)C(=O)O)cc4)nc32)[C@H](O)[C@@H]1O [Compound 36] | some gain in affinity
